Assay results as given in patent US4581165A, “Anti-diabetic compounds” (Eli Lilly and Company, priority 1984, dated 1986).

System: isolated rat adipocytes
Assay: Biological Activity in Isolated Rat Adipocytes (incorporation of 2-3H-glucose in total fat cell lipid)
Assay type: cell-based
Conditions: 2-3H-glucose incorporation in total fat cell lipid, 37° for 1 hr, mean±SEM
Description: Adipocytes were prepared from epididymal fat pads by a modification (Huber, supra) of the collagenase digestion procedure of Rodbell, supra. Krebs-Ringer-HEPES (KRH) buffer, pH 7.4, containing 4% bovine serum albumin and 0.55 mM glucose was used in all isolation and incubation steps.
Biological activity was assessed according to the method of Moody, A. J., Stan, M. A., Stan, M., and Glieman, J., Horm. Metab. Res. 6, 12-16 (1974) by monitoring the incorporation of 2-^3 H-glucose in total fat cell lipid. […] Radioactivity was determined in a Searle Isocap 300 liquid scintillation counter at an efficiency of approximately 30%. Blanks were prepared in which the scintillation fluid was added to the vials prior to the addition of cells. The average counts obtained from these vials were subtracted from those observed in all other samples.
Competitive binding curves and biological activity dose-response curves were analyzed using the PREFIT and ALLFIT programs [DeLean, A., Munson, P. J., and Rodbard, D., Am. J. Physiol. 235, E97-E102 (1978)] based on a four-parameter logistic model. These analyses indicated the concentration of insulin or proinsulin necessary to produce a half-maximal response, as well as the maximal and minimal values. All values are presented as the mean±SEM.

| Substance | ED50 |
| --- | --- |
| Human Insulin: human insulin, reference in the binding and activity assays | 5.32 ± 0.7 × 10^-11 M |
| Human Proinsulin: human proinsulin, starting material and reference; relative potency set to 1 | 1.24 ± 0.2 × 10^-8 M |
